Results taken from patent US8338335B2, “Synergistic herbicidal composition containing fluroxypyr and penoxsulam, halosulfuron-methyl, imazamox or imazethapyr” (Dow Agrosciences, LLC, priority 2009, dated 2012).
“And” between values parts separate entries of the source, which are not always exact repeats. Identical values can stand only once.

Experiments:
[1] = test system: Caperonia palustris, CNPPA; Texasweed; assay: Postemergence herbicidal activity of mixtures in the field, CNPPA; assay type: in vivo
Method: (§1) Field trials were conducted in rice and turf using standard herbicide small plot research methodology. Plots varied from 3×3 meter (m) to 3×10 m (width×length) with 4 replicates per treatment. The rice crop was grown using normal cultural practices for fertilization, seeding, watering, flooding and maintenance to ensure good growth of the crop and the weeds. The turf crop was a permanent established crop of centipedegrass that was grown and maintained under normal cultural practices for fertilization, watering, mowing and disease maintenance to ensure good growth of the crop and the weeds.
(§2) All treatments in the field trials were applied using a carbon dioxide (CO2) backpack sprayer calibrated to apply 187 L/ha spray volume. Commercially available products of penoxsulam and fluoroxypyr-meptyl were mixed in water at appropriately formulated product rates to achieve the desired rates based on a unit area of application (hectare) to achieve the desired rates as shown. Treatments were rated at 7 to 33 days after application as compared to the untreated control plants. Visual weed control was scored on a scale of 0 to 100 percent where 0 corresponds to no injury and 100 corresponds to complete kill.
(§3) Colby's equation was used to determine the herbicidal effects expected from the mixtures (Colby, S. R. Calculation of the synergistic and antagonistic response of herbicide combinations. Weeds 1967, 15, 20-22).
(§4) The following equation was used to calculate the expected activity of mixtures containing two active ingredients, A and B: Expected=A+B−(A×B/100)

Sunflower (HELAN) = assay: Crop injury (safening) in the field, sunflower; assay type: in vivo, Helianthus annuus; settings: Fluroxypyr-meptyl 100 g ae/ha alone
[2] = test system: Panicum dichotomiflorum, PANDI; fall panicum; assay: Postemergence herbicidal activity of mixtures in the field, PANDI; assay type: in vivo
Method: as §1
as §2, with “kill. […]” for “kill.”

[3] = test system: Leptochloa spp, LEFSS; sprangletop; assay: Postemergence herbicidal activity of mixtures in the field, LEFSS; assay type: in vivo
Method: as §1
All treatments in the field trials were applied using a carbon dioxide (CO2) backpack sprayer calibrated to apply 187 L/ha spray volume. […] Treatments were rated at 7 to 33 days after application as compared to the untreated control plants. Visual weed control was scored on a scale of 0 to 100 percent where 0 corresponds to no injury and 100 corresponds to complete kill.
as §3, §4

[4] = test system: Sesbania exaltata, SEBEX; Hemp sesbania; assay: Postemergence herbicidal activity of mixtures in the field, SEBEX; assay type: in vivo
Method: as §1
as §2, with “kill. […]” for “kill.”

[5] = test system: Echinochloa crus-galli (ECHCG); barnyardgrass; assay: Postemergence herbicidal activity of mixtures in the greenhouse, ECHCG; assay type: in vivo
Method: (§5) Seeds of the desired test plant species were planted in 80% mineral soil/20% grit planting mixture, which typically has a pH of 7.2 and an organic matter content of about 2.9 percent, in plastic pots with a surface area of 128 square centimeters (cm^2). The growing medium was steam sterilized. The plants were grown for 7-19 days in a greenhouse with an approximate 14-hour (h) photoperiod which was maintained at about 29° C. during the day and 26° C. during the night. Nutrients and water were added on a regular basis and supplemental lighting was provided with overhead metal halide 1000-Watt lamps as necessary. The plants were treated with postemergence foliar applications when they reached the third to fourth true leaf stage. All treatments were applied using a randomized complete block trial design, with 4 replications per treatment.
(§6) Treatments consisted of the compounds as listed in Tables 1, 3, 5 and 6, each compound applied alone and in combination. Formulated amounts of penoxsulam, halosulfuron-methyl, imazamox and fluoroxypyr-meptyl ester, were placed in 60 milliliter (mL) glass vials and dissolved in a volume of 60 mL of a water solution containing Agri-dex crop oil concentrate in a 1% volume per volume (v/v) ratio. Compound requirements are based upon a 12 mL application volume at a rate of 187 liters per hectare (L/ha). Spray solutions of the mixtures were prepared by adding the stock solutions to the appropriate amount of dilution solution to form 12 mL spray solution with active ingredients in single and two way combinations. Formulated compounds were applied to the plant material with an overhead Mandel track sprayer equipped with 8002E nozzles calibrated to deliver 187 L/ha at a spray height of 18 inches (43 centimeters (cm)) above average plant canopy.
(§7) The treated plants and control plants were placed in a greenhouse as described above and watered by sub-irrigation to prevent wash-off of the test compounds. Treatments were rated at 7 to 21 days after application (DAA) as compared to the untreated control plants. Visual weed control was scored on a scale of 0 to 100 percent where 0 corresponds to no injury and 100 corresponds to complete kill.
as §3, §4

[6] = test system: Leptochloa chinensis (LEFCH); Chinese sprangletop; assay: Postemergence herbicidal activity of mixtures in the greenhouse, LEFCH; assay type: in vivo; settings: 21 DAA
Method: as §5, §6
(§8) The treated plants and control plants were placed in a greenhouse as described above and watered by sub-irrigation to prevent wash-off of the test compounds. […] Visual weed control was scored on a scale of 0 to 100 percent where 0 corresponds to no injury and 100 corresponds to complete kill. […]

Centipedegrass (ERLOP) = assay: Crop injury (safening) in the field, centipedegrass; assay type: in vivo, Eremochloa ophiuroides
Method: as §1
as §2, with “kill. […]” for “kill.”

[7] = test system: Scirpus juncoides (SCPJU); Japanese bulrush; assay: Postemergence herbicidal activity of mixtures in the greenhouse, SCPJU; assay type: in vivo
Method: as §5
Treatments consisted of the compounds as listed in Tables 1, 3, 5 and 6, each compound applied alone and in combination. […]
as §8

[8] = test system: Brachiaria platyphylla (BRAPP); broadleaf signalgrass; assay: Postemergence herbicidal activity of mixtures in the greenhouse, BRAPP; assay type: in vivo; settings: 21 DAA
Method: as §5, §6, §7, §3, §4

[9] = test system: Plantago lanceolata, PLALA; narrow-leaved plantain; assay: Postemergence herbicidal activity of mixtures in the field, PLALA; assay type: in vivo
Method: as §1
as §2, with “kill. […]” for “kill.”

[10] = test system: Cyperus esculentus (CYPES); yellow nutsedge; assay: Postemergence herbicidal activity of mixtures in the greenhouse, CYPES; assay type: in vivo; settings: 21 DAA
Method: as §5, §6, §7, §3, §4

[11] = Fluroxypyr-meptyl 97 g ae/ha alone
[12] = Fluroxypyr-meptyl 290 g ae/ha alone
[13] = Fluroxypyr-meptyl 200 g ae/ha alone
[14] = Halosulfuron-methyl 4.4 g ai/ha alone
[15] = Halosulfuron-methyl 18 g ai/ha alone

CCCCCCC(C)OC(=O)COc1nc(F)c(Cl)c(N)c1Cl (centres unmarked) [Fluroxypyr-meptyl, fluoroxypyr-meptyl ester]
% Control CNPPA Ob [1, 11]: 45% | % Control CNPPA Ob [1, 12]: 60% | % Injury HELAN Ob (Sunflower (HELAN)): 31% and 34% | % Control PANDI Ob [2, 12]: 0% | % Control LEFSS Ob [3, 12]: 0% | % Control SEBEX Ob [4, 11]: 57% | % Control ECHCG Ob ([5]; Fluroxypyr-meptyl 50 g ae/ha alone, 21 DAA, Table 5): 6% | % Control ECHCG Ob ([5]; Fluroxypyr-meptyl 50 g ae/ha alone, 21 DAA, Table 6): 1.3% | % Control ECHCG Ob ([5]; Fluroxypyr-meptyl 100 g ae/ha alone, 21 DAA, Table 5): 2% | % Control ECHCG Ob ([5]; Fluroxypyr-meptyl 100 g ae/ha alone, 21 DAA, Table 6): 4% | % Control ECHCG Ob ([5]; Fluroxypyr-meptyl 200 g ae/ha alone, 21 DAA, Table 5): 11% | % Control ECHCG Ob ([5]; Fluroxypyr-meptyl 200 g ae/ha alone, 21 DAA, Table 6): 6% | % Control ECHCG Ob ([5]; Fluroxypyr-meptyl 340 g ae/ha alone, Table 1): 0% | % Control LEFCH Ob [6, 13]: 15% | % Injury ERLOP Ob (Centipedegrass (ERLOP); Fluroxypyr-meptyl 210 g ae/ha alone, field): 6% | % Control SCPJU Ob ([7]; Fluroxypyr-meptyl 70 g ae/ha alone): 60% | % Control BRAPP Ob ([8]; Fluroxypyr-meptyl 50 g ae/ha alone): 10% | % Control BRAPP Ob ([8]; Fluroxypyr-meptyl 100 g ae/ha alone): 23% | % Control BRAPP Ob [8, 13]: 20% | % Control PLALA Ob ([9]; Fluroxypyr-meptyl 140 g ae/ha alone): 0% | % Control CYPES Ob ([10]; Fluroxypyr-meptyl 50 g ae/ha alone, Table 5): 1% | % Control CYPES Ob ([10]; Fluroxypyr-meptyl 100 g ae/ha alone, Table 5): 3% | % Control CYPES Ob ([10]; Fluroxypyr-meptyl 100 g ae/ha alone, Table 6): 10% | % Control CYPES Ob ([10]; Fluroxypyr-meptyl 200 g ae/ha alone, Table 5): 8% | % Control CYPES Ob ([10]; Fluroxypyr-meptyl 200 g ae/ha alone, Table 6): 9%

COC(=O)c1c(Cl)nn(C)c1S(=O)(=O)NC(=O)Nc1nc(OC)cc(OC)n1 [Halosulfuron-methyl, methyl 3-chloro-5-[[[[(4,6-dimethoxy-2-pyrimidinyl)amino]carbonyl]amino]sulfonyl]-1-methyl-1H-pyrazole-4-carboxylate]
% Control ECHCG Ob ([5]; Halosulfuron-methyl 8.8 g ai/ha alone, 21 DAA): 3% | % Control ECHCG Ob ([5]; Halosulfuron-methyl 18 g ai/ha alone, 21 DAA): 6% | % Control LEFCH Ob [6, 14]: 2% | % Control LEFCH Ob [6, 15]: 8% | % Control CYPES Ob [10, 14]: 68% | % Control CYPES Ob ([10]; Halosulfuron-methyl 8.8 g ai/ha alone): 73% | % Control CYPES Ob [10, 15]: 78%

COCc1cnc(C2=NC(C)(C(C)C)C(=O)N2)c(C(=O)O)c1 (centres unmarked) [Imazamox, 2-[4,5-dihydro-4-methyl-4-(1-methylethyl)-5-oxo-1H-imidazol-2-yl]-5-(methoxymethyl)-3-pyridinecarboxylic acid]
% Control ECHCG Ob ([5]; Imazamox 4.4 g ai/ha alone, 21 DAA): 1.3% | % Control ECHCG Ob ([5]; Imazamox 8.8 g ai/ha alone, 21 DAA): 29% | % Control ECHCG Ob ([5]; Imazamox 18 g ai/ha alone, 21 DAA): 85% | % Control BRAPP Ob ([8]; Imazamox 4.4 g ai/ha alone): 3% | % Control BRAPP Ob ([8]; Imazamox 8.8 g ai/ha alone): 46% | % Control CYPES Ob ([10]; Imazamox 8.8 g ai/ha alone): 8% | % Control CYPES Ob ([10]; Imazamox 18 g ai/ha alone): 42%

CCc1cnc(C2=NC(C)(C(C)C)C(=O)N2)c(C(=O)O)c1 (centres unmarked) [Imazethapyr, 2-[4,5-dihydro-4-methyl-4-(1-methylethyl)-5-oxo-1H-imidazol-2-yl]-5-ethyl-3-pyridinecarboxylic acid]
% Control PANDI Ob ([2]; Imazethapyr 70 g ai/ha alone): 40% | % Control LEFSS Ob ([3]; Imazethapyr 70 g ai/ha alone): 28%

COc1cnc(OC)n2nc(NS(=O)(=O)c3c(OCC(F)F)cccc3C(F)(F)F)nc12 [Penoxsulam, 2-(2,2-difluoroethoxy)-N-(5,8-dimethoxy-[1,2,4]triazolo[1,5-c]pyrimidin-2-yl)-6-(trifluoromethyl)benzenesulfonamide]
% Control CNPPA Ob ([1]; Penoxsulam 35 g ai/ha alone): 67% | % Control SEBEX Ob ([4]; Penoxsulam 22 g ai/ha alone): 76% | % Control ECHCG Ob ([5]; Penoxsulam 15 g ai/ha alone): 84% and 78% and 62% | % Injury ERLOP Ob (Centipedegrass (ERLOP); in vivo): 15% | % Control SCPJU Ob ([7]; Penoxsulam 10 g ai/ha alone): 2% | % Control PLALA Ob ([9]; Penoxsulam 15 g ai/ha alone): 13%
